Values quoted from earlier work as cited in patent US20250241996A1, “COMBINATORIAL, AND ROTATIONAL COMBINATORIAL THERAPIES” (Starrock Pharma Inc., priority 2022, published 2025).
Read-outs that look alike come from different tables or passages of the source.

What was measured:
[1] = Model: in vitro; cited from earlier work
[2] = oral administration; mice; cited from earlier work
[3] = intravenous; 18 obese patients; cited from earlier work
[4] = injections, 4-week study; saline 0.5±0.5 kg; cited from earlier work
[5] = cited from earlier work
[6] = cited from earlier work; for average weight reduction (efficacy estimate): placebo 2.4%; for treatment discontinuation rate due to adverse events: placebo 2.6%; for overall treatment discontinuation rate: placebo 26.4%; for people achieving at least 5% body weight reductions: placebo 28%; for Body weight change from baseline / Estimated mean weight change / Patients with weight loss of >5% / Patients with weight loss of >20%: week 72
[7] = two hours after infusion, P<0.001, cited from earlier work
[8] = cited from earlier work; remark: listed apart in the source

O=C1CCC(N2C(=O)c3ccccc3C2=O)C(=O)N1 (stereo not drawn) [Thalidomide]
Results [1]: decrease TNF-α from Aβ42-

enterostatin
serum cholesterol [2]: reduce serum cholesterol after oral administration in mice
feelings of hunger, satiety, or food preference [3]: did not impact feelings of hunger, satiety, or food preference

oxyntomodulin: 37-amino acid peptide hormone (SEQ ID NO:4) (HSQGTFTSDYSKYLDSRRAQDFVQWLMNTKRNRNNIA; Oxyntomodulin (OXY/OXM 53-89); listed as Homo sapiens)
average weight loss [4]: 2.3 ± 0.4 kg

tirzepatide
long-term blood sugar control (A1C) and weight loss compared to semaglutide ([5]; human, in vivo): significantly better long-term blood sugar control (i.e., A1C) and weight loss compared to semaglutide
body weight reduction ([5]; phase III, type 2 diabetes, semaglutide comparator at 1 mg): > 15%
average weight reduction (efficacy estimate) ([6]; 5 mg): 16.0%
treatment discontinuation rate due to adverse events ([6]; 5 mg): 4.3%
overall treatment discontinuation rate ([6]; 5 mg): 14.3%
people achieving at least 5% body weight reductions ([6]; 5 mg): 89%
average weight reduction (efficacy estimate) ([6]; 10 mg): 21.4%
treatment discontinuation rate due to adverse events ([6]; 10 mg): 7.1%
overall treatment discontinuation rate ([6]; 10 mg): 16.4%
people achieving at least 5% body weight reductions ([6]; 10 mg): 96%
average weight reduction (efficacy estimate) ([6]; 15 mg): 22.5%
treatment discontinuation rate due to adverse events ([6]; 15 mg): 6.2%
overall treatment discontinuation rate ([6]; 15 mg): 15.1%
people achieving at least 5% body weight reductions ([6]; 15 mg): 96%
body weight lost (up to) ([6]; 5, 10, 15 mg, 72 weeks): ≤ 52 lb.
Body weight change from baseline ([6]; SC 5 mg): -16 kg
Estimated mean weight change ([6]; SC 5 mg): −15%
Patients with weight loss of >5% ([6]; SC 5 mg): 85%
Patients with weight loss of >20% ([6]; SC 5 mg): 30%
Body weight change from baseline ([6]; SC 10 mg): -22 kg
Estimated mean weight change ([6]; SC 10 mg): −19.5%
Patients with weight loss of >5% ([6]; SC 10 mg): 89%
Patients with weight loss of >20% ([6]; SC 10 mg): 50%
Body weight change from baseline ([6]; SC 15 mg): -24 kg
Estimated mean weight change ([6]; SC 15 mg): −20.9%
Patients with weight loss of >5% ([6]; SC 15 mg): 91%
Patients with weight loss of >20% ([6]; SC 15 mg): 57%
trial participants experiencing abdominal pain ([6]; in vivo): 5%
trial participants experiencing constipation ([6]; in vivo): 7%
trial participants experiencing diarrhea ([6]; in vivo): 17%
trial participants experiencing nausea ([6]; in vivo): 18%
trial participants experiencing vomiting ([6]; in vivo): 9%

B1: PYY: 36-amino acid peptide released from cells in the ileum and colon (peptide, listed as Homo sapiens)
chain: MVFVRRPWPALTTVLLALLVCLGALVDAYPIKPEAPREDASPEELNRYYASLRHYLNLVTRQRYGKRDGPDTLLSKTFFPDGEDRPVRSRSEGPDLW
modifications: Peptide tyrosine-tyrosine (PYY)
notes: 36-amino acid peptide released from cells in the ileum and colon
decrease of caloric intake during a buffet lunch ([7]; lean subjects): 31%
decrease of caloric intake during a buffet lunch ([7]; obese subjects): 30%

B2: adiponectin: 244-amino-acid-long polypeptide (SEQ ID NO:2) (protein, listed as Homo sapiens)
chain: MLLLGAVLLLLALPGHDQETTTQGPGVLLPLPKGACTGWMAGIPGHPGHNGAPGRDGRDGTPGEKGEKGDPGLIGPKGDIGETGVPGAEGPRGFPGIQGRKGEPGEGAYVYRSAFSVGLETYVTIPNMPIRFTKIFYNQQNHYDGSTGKFHCNIPGLYYFAYHITVYMKDVKVSLFKKDKAMLFTYDQYQENNVDQASGSVLLHLEVGDQVWLQVYGEGERNGLYADNDNDSTFTGFLLYHDTN
modifications: Adiponectin
half-life [8]: 2.5 h
